Test results: PubChem BioAssay (NCI)
Values joined by “and” are separate entries in the source; they are usually repeats but may differ in a detail not shown here. Equal entries are not always repeated.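 Each compound was tested at five concentrations against cells in 96-well plates for 48 hours. GI50 = concentration required for 50% inhibition of growth. At the TGI there is no net growth.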

System: NCI-H522 lung
Experiment: inhibition of tumour cell growth, NCI panel, 48 h

Structure (SMILES)	TGI	GI50
C=C1C(=O)OC2/C=C(\COC(C)=O)CCC(OC(C)=O)C3=CC(OC3=O)C12 (stereo unspecified)	1.14 µM	–
C/C(N=NC(=S)N(C)C)=C1\C=CC=CN1O	> 56.2 µM	–
CCCSc1nc(COC(=O)NC)c(COC(=O)NC)n1C	45.1 µM and > 100 µM	22.1 µM and 55.5 µM
CCN(CC)c1ccc(N=Nc2ccc(-c3nc4ccc[n+](C)c4s3)cc2)cc1	28.5 µM	–
O=C1CSC(/C(=N/Nc2ccccc2)c2nc3ccccc3[nH]2)=N1	> 100 µM	–
O=C(c1ccccc1)C1OC12C(=O)Nc1ccccc12 (stereo unspecified)	28.2 µM	–
COc1ccc2nc(NC(=O)C(=O)C(C#N)c3ccc([N+](=O)[O-])cc3)sc2c1 (stereo unspecified)	> 100 µM	–
O=C(O)[C@H](NS(=O)(=O)c1ccc([N+](=O)[O-])cc1)c1ccccc1	> 100 µM	–
CC(C)C[C@H](NC(=O)/C=C/Cn1ccc2ccccc2c1=O)B(O)O	6.39 µM	2.52 µM
S=C1OC2CCCC[C@H]2O1 (stereo partly specified)	> 100 µM	–
O=C1/C(=C/c2cccc([N+](=O)[O-])c2)COc2ccc(Br)cc21	> 100 µM	–
CSC(C1c2ccccc2N(c2ccc(C)cc2)c2[nH]c(=O)n(C)c(=O)c21)S(=O)(=O)c1ccc(C)cc1 (stereo unspecified)	> 100 µM	–
O=c1cc(NC2CCN(CCCc3ccccc3)CC2)c2cc(Cl)ccc2o1	23.5 µM	8.35 µM
COc1cc(/C=C(\C#N)c2ccccc2)cc(OC)c1	> 100 µM	–
N#Cc1cccnc1Cl	> 100 µM	–
Nc1nc(F)nc2c1ncn2C1OC(CO)C(O)C1O (stereo unspecified)	> 100 µM	18.4 µM
CCCCCCCCCCCC(=O)OCC1OC(OC)C(NC(=O)N(CCCl)N=O)C(O)C1O (stereo unspecified)	24.7 µM	–
C=CC/C=C/C/C=C/CCCCCCCc1cccc(O)c1C(=O)O	> 100 µM	–
CCn1c(SCc2ccc(C)cc2)nnc1-c1nn(-c2ccc(Cl)cc2Cl)c(-c2ccc(Cl)cc2)c1C	5.2 µM	1.35 µM
CCn1c(-c2ccc(OC(C)=O)cc2)c(C)c2cc(OC(C)=O)ccc21	40 µM	–
O=c1cccc(C#CC#CC2=CCCCC2)o1	10.9 µM	4.03 µM
COc1ccc(OC)c2c(C(=O)O)c(Cc3ccccc3)ccc12	> 100 µM	–
Cc1c(C(=O)/C=C/c2ccccc2)[n+](=O)c2ccccc2n1[O-]	19.4 µM	–
N#CC1CC2(C1)OCCS2 (stereo unspecified)	> 100 µM	–
O=C1Nc2ccc(F)cc2/C1=C/c1ccc[nH]1	> 25 µM	> 25 µM
Br[C](Br)(Br)[Hg][c]1ccccc1	3.05 µM	1.44 µM
C1C[OH+]CC[OH+]CC[OH+]CC[OH+]CC[OH+]1.[Cl-].[V]	> 100 µM	> 100 µM
COc1ccc(CC2NCCc3cc(OC)c(OC)cc32)cc1Br (stereo unspecified)	> 100 µM	–
CCOc1cc(C(C)(C)C)ccc1C1=N[C@@](C)(c2ccc(Cl)cc2)[C@@](C)(c2ccc(Cl)cc2)N1C(=O)N1CCN(CCCS(C)(=O)=O)CC1	39.2 µM	7.11 µM

System: SNB-19 CNS
Experiment: inhibition of tumour cell growth, NCI panel, 48 h

Structure (SMILES)	TGI	GI50
O=C1[C@@H]2C(c3ccccc3F)=NO[C@@H]2C(=O)N1c1ccc(Cc2ccc(N3C(=O)[C@H]4C(c5ccccc5F)=NO[C@H]4C3=O)cc2)cc1	> 100 µM	–
C=CCc1ccc(Oc2cc(CC=C)c3c(c2O)O[C@@H](CO)[C@H]3c2ccc(O)c(-c3cc(CC=C)ccc3O)c2)cc1	> 100 µM	–
O=C(NCO)NCOCn1c(=O)n(CO)c(=O)n(CO)c1=O	> 31.6 µM	–
O=C1OC2CCCC[C@@H]2C2C[C@]34CCCCC3[C@@H](C(=O)O4)C12 (stereo partly specified)	> 100 µM	–
CN(C)c1cc[c]([Sn]([c]2ccc(N(C)C)cc2)([c]2ccc(N(C)C)cc2)[c]2ccc(N(C)C)cc2)cc1	23 µM	10.7 µM
C=C1C(=O)OC2/C=C(\COC(C)=O)CCC(OC(C)=O)C3=CC(OC3=O)C12 (stereo unspecified)	36.3 µM	–
C/C(N=NC(=S)N(C)C)=C1\C=CC=CN1O	> 100 µM	–
CCCSc1nc(COC(=O)NC)c(COC(=O)NC)n1C	> 100 µM	–
O=C1CCC(O)=C1N=Nc1ccccc1	> 100 µM	–
CCN(CC)c1ccc(N=Nc2ccc(-c3nc4ccc[n+](C)c4s3)cc2)cc1	25.1 µM	–
NC(=O)NCc1c(C(N)=O)ncn1Cc1ccccc1	> 100 µM	–
O=C1CSC(/C(=N/Nc2ccccc2)c2nc3ccccc3[nH]2)=N1	> 100 µM	–
O=C(c1ccccc1)C1OC12C(=O)Nc1ccccc12 (stereo unspecified)	> 100 µM	–
COc1ccc2nc(NC(=O)C(=O)C(C#N)c3ccc([N+](=O)[O-])cc3)sc2c1 (stereo unspecified)	> 100 µM	–
O=C(O)[C@H](NS(=O)(=O)c1ccc([N+](=O)[O-])cc1)c1ccccc1	> 100 µM	–
CC(C)C[C@H](NC(=O)/C=C/Cn1ccc2ccccc2c1=O)B(O)O	> 100 µM	6.49 µM
S=C1OC2CCCC[C@H]2O1 (stereo partly specified)	> 100 µM	–
CSC(C1c2ccccc2N(c2ccc(C)cc2)c2[nH]c(=O)n(C)c(=O)c21)S(=O)(=O)c1ccc(C)cc1 (stereo unspecified)	> 100 µM	–
CCOC(=O)NC(=O)c1cn(CCCOC(=O)CCCCCCCCCCC(=O)OCCCn2cc(C(=O)NC(=O)OCC)c(=O)[nH]c2=O)c(=O)[nH]c1=O	> 100 µM	–

Structure (SMILES)	TGI	GI50
O=c1cc(NC2CCN(CCCc3ccccc3)CC2)c2cc(Cl)ccc2o1	29.8 µM	13.4 µM
COc1cc(/C=C(\C#N)c2ccccc2)cc(OC)c1	> 100 µM	–
N#Cc1cccnc1Cl	> 100 µM	–
Nc1nc(F)nc2c1ncn2C1OC(CO)C(O)C1O (stereo unspecified)	> 100 µM	14.6 µM
CCCCCCCCCCCC(=O)OCC1OC(OC)C(NC(=O)N(CCCl)N=O)C(O)C1O (stereo unspecified)	> 100 µM	–
C=CC/C=C/C/C=C/CCCCCCCc1cccc(O)c1C(=O)O	> 100 µM	–
CCn1c(SCc2ccc(C)cc2)nnc1-c1nn(-c2ccc(Cl)cc2Cl)c(-c2ccc(Cl)cc2)c1C	13.3 µM	2.3 µM
CCn1c(-c2ccc(OC(C)=O)cc2)c(C)c2cc(OC(C)=O)ccc21	> 100 µM	–
O=c1cccc(C#CC#CC2=CCCCC2)o1	32.6 µM	12 µM
COc1ccc(OC)c2c(C(=O)O)c(Cc3ccccc3)ccc12	> 100 µM	–
O=C(Nc1c(Cl)cc([N+](=O)[O-])cc1Cl)C(=O)C(C1OC(=O)c2ccccc21)[N+](=O)[O-] (stereo unspecified)	> 100 µM	–
Cc1c(C(=O)/C=C/c2ccccc2)[n+](=O)c2ccccc2n1[O-]	31.8 µM	–
N#CC1CC2(C1)OCCS2 (stereo unspecified)	> 100 µM	–
O=C1Nc2ccc(F)cc2/C1=C/c1ccc[nH]1	> 25 µM	> 25 µM
Br[C](Br)(Br)[Hg][c]1ccccc1	30.6 µM	16.6 µM
C1C[OH+]CC[OH+]CC[OH+]CC[OH+]CC[OH+]1.[Cl-].[V]	> 100 µM	43.5 µM
COc1ccc(CC2NCCc3cc(OC)c(OC)cc32)cc1Br (stereo unspecified)	> 100 µM	–
c1ccc(C2Nc3ccccc3C3OCCCC23)cc1 (stereo unspecified)	> 100 µM	–
CCOc1cc(C(C)(C)C)ccc1C1=N[C@@](C)(c2ccc(Cl)cc2)[C@@](C)(c2ccc(Cl)cc2)N1C(=O)N1CCN(CCCS(C)(=O)=O)CC1	17.8 µM	5.12 µM

System: HOP-92 NSCLC
Experiment: inhibition of tumour cell growth, NCI panel, 48 h

Structure (SMILES)	TGI	GI50
O=C1[C@@H]2C(c3ccccc3F)=NO[C@@H]2C(=O)N1c1ccc(Cc2ccc(N3C(=O)[C@H]4C(c5ccccc5F)=NO[C@H]4C3=O)cc2)cc1	> 100 µM	–
C=CCc1ccc(Oc2cc(CC=C)c3c(c2O)O[C@@H](CO)[C@H]3c2ccc(O)c(-c3cc(CC=C)ccc3O)c2)cc1	> 100 µM	–
Clc1ccc2c(c1)-c1c3c(nn1-c1ccccc1)-c1ccccc1SC3O2 (stereo unspecified)	> 100 µM	–
O=C1OC2CCCC[C@@H]2C2C[C@]34CCCCC3[C@@H](C(=O)O4)C12 (stereo partly specified)	> 100 µM	–
CN(C)c1cc[c]([Sn]([c]2ccc(N(C)C)cc2)([c]2ccc(N(C)C)cc2)[c]2ccc(N(C)C)cc2)cc1	20.5 µM	8.08 µM
C=C1C(=O)OC2/C=C(\COC(C)=O)CCC(OC(C)=O)C3=CC(OC3=O)C12 (stereo unspecified)	12.5 µM	–
C/C(N=NC(=S)N(C)C)=C1\C=CC=CN1O	> 100 µM	–
CCCSc1nc(COC(=O)NC)c(COC(=O)NC)n1C	> 100 µM	–
